Assay: Toxic hemolytic activity against RBC assessed as hemolytic index
Format: ADME, cell-based
Details: erythrocyte

Point of comparison: `CC(=O)O[C@@H]1CO[C@@H](O[C@@H]2[C@@H](O)[C@H](O[C@@H]3[C@H](O)[C@@H](O[C@@H]4O[C@H](CO)[C@H](O)[C@H](O[C@@H]5O[C@H](CO)[C@@H](O)[C@H](O)[C@H]5O)[C@H]4O)[C@H](O[C@@H]4C[C@@H]5CC[C@H]6[C@@H]7[C@H](O)[C@@H]8O[C@]9(CC[C@@H](C)CO9)[C@@H](C)[C@@H]8[C@@]7(C)CC[C@@H]6[C@@]5(C)C[C@H]4O)O[C@@H]3CO)O[C@H](CO)[C@H]2O)[C@@H](O)[C@H]1O`, Activity 52000. Against it:
- CC(=O)OC[C@H]1O[C@@H](O[C@H]2[C@@H](O)[C@@H](CO)O[C@@H](O[C@H]3[C@H](O[C@@H]4C[C@@H]5CC[C@H]6[C@@H]7[C@H](O)[C@@H]8O[C@]9(CC[C@@H](C)CO9)[C@@H](C)[C@@H]8[C@@]7(C)CC[C@@H]6[C@@]5(C)C[C@H]4O)O[C@H](CO)[C@H](O[C@@H]4O[C@H](CO)[C@@H](O)[C@H](O[C@@H]5OC[C@@H](OC(C)=O)[C@H](O)[C@@H]5O)[C@H]4O)[C@@H]3O)[C@@H]2O)[C@H](O)[C@@H](O)[C@@H]1O — lower, 43000
- CC(=O)OC[C@H]1O[C@@H](O[C@H]2[C@@H](O)[C@@H](CO)O[C@@H](O[C@H]3[C@H](O[C@@H]4C[C@@H]5CC[C@H]6[C@@H]7[C@H](O)[C@@H]8O[C@]9(CC[C@@H](C)CO9)[C@@H](C)[C@@H]8[C@@]7(C)CC[C@@H]6[C@@]5(C)C[C@H]4O)O[C@H](CO)[C@H](O[C@@H]4O[C@H](CO)[C@@H](O)[C@H](O[C@@H]5OC[C@@H](O)[C@H](O)[C@@H]5O)[C@H]4O)[C@@H]3O)[C@@H]2O)[C@H](O)[C@@H](O)[C@@H]1O — lower, 40000
- C[C@@H]1CC[C@@]2(OC1)O[C@H]1[C@@H](O)[C@H]3[C@@H]4CC[C@H]5C[C@@H](O[C@@H]6O[C@H](CO)[C@H](O[C@@H]7O[C@H](CO)C(O)[C@H](O[C@@H]8OC[C@@H](O)[C@H](O)[C@H]8O)[C@H]7O[C@@H]7O[C@H](CO)[C@H](O)[C@H](O[C@@H]8O[C@H](CO)[C@@H](O)[C@H](O)[C@H]8O)[C@H]7O)[C@H](O)[C@H]6O)[C@H](O)C[C@]5(C)[C@H]4CC[C@]3(C)[C@H]1[C@@H]2C (some centres undefined) [DIGITONIN] — higher, 135000
